In the CheMixHub viscosity set:
± gives the uncertainty stated by the source.

Test: xn = mol fraction of the nth substance listed

CCNCC + CCCCCCO
viscosity [mPa·s], 100 kPa
Conditions	x1 = 0.0806	x1 = 0.1594	x1 = 0.2398	x1 = 0.3506	x1 = 0.4394	x1 = 0.559	x1 = 0.6502	x1 = 0.7392	x1 = 0.8506	x1 = 0.9401
293.15 K	4.73 ± 0.38	4.11 ± 0.33	3.54 ± 0.28	2.83 ± 0.23	2.32 ± 0.19	1.71 ± 0.14	1.32 ± 0.11	0.98 ± 0.08	0.65 ± 0.05	0.43 ± 0.04
303.15 K	3.45 ± 0.28	3.02 ± 0.24	2.59 ± 0.21	2.08 ± 0.17	1.7 ± 0.14	1.27 ± 0.1	1 ± 0.08	0.75 ± 0.06	0.52 ± 0.04	0.37 ± 0.03
313.15 K	2.58 ± 0.21	2.24 ± 0.18	1.92 ± 0.15	1.53 ± 0.12	1.25 ± 0.1	0.93 ± 0.08	0.73 ± 0.06	0.55 ± 0.04	0.398 ± 0.032	0.31 ± 0.03
323.15 K	1.97 ± 0.16	1.71 ± 0.14	1.46 ± 0.12	1.16 ± 0.09	0.95 ± 0.08	0.71 ± 0.06	0.56 ± 0.05	0.44 ± 0.04	0.33 ± 0.03	0.27 ± 0.02

COCCOCCOCCOC + ClC(Cl)(Cl)Cl
298.15 K, 101 kPa
Conditions	viscosity [mPa·s]
x1 = 0.0041	0.912 ± 0.013
x1 = 0.0202	0.952 ± 0.013
x1 = 0.0485	1 ± 0.014
x1 = 0.0921	1.08 ± 0.015
x1 = 0.1704	1.198 ± 0.016
x1 = 0.2242	1.288 ± 0.017
x1 = 0.2579	1.333 ± 0.017
x1 = 0.2736	1.364 ± 0.018
x1 = 0.3237	1.437 ± 0.018
x1 = 0.3887	1.52 ± 0.019
x1 = 0.4494	1.59 ± 0.02
x1 = 0.5	1.646 ± 0.021
x1 = 0.5522	1.696 ± 0.022
x1 = 0.6149	1.75 ± 0.022
x1 = 0.6542	1.79 ± 0.023
x1 = 0.7187	1.826 ± 0.023
x1 = 0.7623	1.846 ± 0.023
x1 = 0.8533	1.891 ± 0.024
x1 = 0.8992	1.913 ± 0.024
x1 = 0.9312	1.929 ± 0.024

CCCC(=O)OC + c1ccccc1
viscosity [mPa·s], 101 kPa
Conditions	x2 = 0.1316	x2 = 0.1994	x2 = 0.2999	x2 = 0.3974	x2 = 0.5001	x2 = 0.6023	x2 = 0.7044	x2 = 0.7999	x2 = 0.8939
298.15 K	0.536 ± 0.006	0.534 ± 0.005	0.535 ± 0.005	0.536 ± 0.005	0.54 ± 0.005	0.544 ± 0.005	0.551 ± 0.005	0.561 ± 0.005	0.575 ± 0.005
313.15 K	0.451 ± 0.005	0.45 ± 0.005	0.45 ± 0.005	0.451 ± 0.005	0.453 ± 0.005	0.456 ± 0.005	0.46 ± 0.005	0.466 ± 0.005	0.476 ± 0.005

Nc1ccccc1 + CCC(C)O
303 K, 101.33 kPa
Conditions	viscosity [mPa·s]
x1 = 0.1	2.052 ± 0.21
x1 = 0.2	1.978 ± 0.2
x1 = 0.3	1.954 ± 0.2
x1 = 0.4	1.944 ± 0.2
x1 = 0.5	2.076 ± 0.21
x1 = 0.6	2.156 ± 0.22
x1 = 0.8	2.504 ± 0.26
x1 = 0.9	2.835 ± 0.29
